According to ChEMBL document CHEMBL3046340, “In silico studies on 2,3-dihydro-1,5-benzothiazepines as cholinesterase inhibitors” (Med Chem Res, 2012):

How the values were obtained:
Cholinesterase = Cholinesterase (Homo sapiens, UniProt P06276); experiment: Inhibition of BChE (unknown origin) using butyrylthiocholine chloride as substrate preincubated for 15 min
Acetylcholinesterase = Acetylcholinesterase (Electrophorus electricus, UniProt O42275); experiment: Inhibition of Electrophorus electricus (electric eel) acetylcholinesterase (AChE) using acetylthiocholine iodide as substrate preincubated for 15 min
Chain of Acetylcholinesterase (O42275 whole entry): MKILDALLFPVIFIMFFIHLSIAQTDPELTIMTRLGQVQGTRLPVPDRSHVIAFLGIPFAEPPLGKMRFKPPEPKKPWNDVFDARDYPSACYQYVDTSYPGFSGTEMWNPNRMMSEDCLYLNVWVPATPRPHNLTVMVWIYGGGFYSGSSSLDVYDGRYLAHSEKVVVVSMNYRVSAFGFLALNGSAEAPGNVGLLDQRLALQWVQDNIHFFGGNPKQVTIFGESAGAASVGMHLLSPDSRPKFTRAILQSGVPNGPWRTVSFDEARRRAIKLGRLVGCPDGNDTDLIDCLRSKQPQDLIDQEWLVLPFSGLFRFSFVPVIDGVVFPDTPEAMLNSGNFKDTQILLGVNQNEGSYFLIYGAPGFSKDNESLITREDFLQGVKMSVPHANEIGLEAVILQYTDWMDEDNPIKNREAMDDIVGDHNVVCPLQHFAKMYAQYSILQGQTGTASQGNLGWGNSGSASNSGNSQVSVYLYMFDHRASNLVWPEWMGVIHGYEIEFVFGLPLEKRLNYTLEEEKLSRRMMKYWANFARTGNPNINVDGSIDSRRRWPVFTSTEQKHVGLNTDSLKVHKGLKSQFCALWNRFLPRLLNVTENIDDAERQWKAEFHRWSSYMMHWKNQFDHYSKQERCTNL

Chain of Cholinesterase (P06276 whole entry): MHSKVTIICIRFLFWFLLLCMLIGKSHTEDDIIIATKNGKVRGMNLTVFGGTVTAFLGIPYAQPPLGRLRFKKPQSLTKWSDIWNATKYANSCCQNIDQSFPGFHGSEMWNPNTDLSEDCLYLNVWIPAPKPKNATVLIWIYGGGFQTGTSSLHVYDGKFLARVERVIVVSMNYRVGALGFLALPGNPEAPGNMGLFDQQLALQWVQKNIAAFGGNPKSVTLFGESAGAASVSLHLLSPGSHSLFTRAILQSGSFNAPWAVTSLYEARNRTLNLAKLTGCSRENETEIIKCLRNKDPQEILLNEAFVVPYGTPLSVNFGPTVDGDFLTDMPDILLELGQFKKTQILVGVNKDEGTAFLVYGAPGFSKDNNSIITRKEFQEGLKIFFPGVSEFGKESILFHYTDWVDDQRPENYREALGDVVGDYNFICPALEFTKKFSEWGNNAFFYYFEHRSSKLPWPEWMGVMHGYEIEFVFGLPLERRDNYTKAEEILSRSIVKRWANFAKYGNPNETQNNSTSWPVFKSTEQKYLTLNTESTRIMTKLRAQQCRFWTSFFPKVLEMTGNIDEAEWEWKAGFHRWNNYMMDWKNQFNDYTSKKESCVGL

SMILES | IC50 (Cholinesterase; read-out: IC50) | IC50 (Acetylcholinesterase; read-out: IC50) | IC50 (Cholinesterase) | IC50 (Acetylcholinesterase)
O=[N+]([O-])c1ccc(C2CC(c3ccccc3)=Nc3ccccc3S2)cc1 (configuration not stated) | 60 µM | 102 µM | – | –
c1ccc(C2=Nc3ccccc3SC(c3ccccc3)C2)cc1 (configuration not stated) | – | – | Not Active | Not Active
Cc1ccc(C2CC(c3ccccc3)=Nc3ccccc3S2)cc1 (configuration not stated) | – | – | Not Active | Not Active
COc1ccc(C2CC(c3ccccc3)=Nc3ccccc3S2)cc1OC (configuration not stated) | – | – | Not Active | Not Active
Oc1ccccc1C1=Nc2ccccc2SC(c2ccccc2)C1 (configuration not stated) | – | – | Not Active | Not Active
Oc1ccccc1C1=Nc2ccccc2SC(c2ccc(Cl)cc2)C1 (configuration not stated) | – | – | Not Active | Not Active
Oc1ccccc1C1=Nc2ccccc2SC(c2ccc(F)cc2)C1 (configuration not stated) | – | – | Not Active | Not Active
COc1cccc(C2CC(c3ccccc3O)=Nc3ccccc3S2)c1 (configuration not stated) | – | – | Not Active | Not Active
COc1ccc(C2CC(c3ccccc3O)=Nc3ccccc3S2)cc1 (configuration not stated) | – | – | Not Active | Not Active
Cc1ccc(C2CC(c3ccccc3O)=Nc3ccccc3S2)cc1 (configuration not stated) | – | – | Not Active | Not Active
Oc1ccccc1C1=Nc2ccccc2SC(c2ccc3c(c2)OCO3)C1 (configuration not stated) | – | – | Not Active | Not Active
Oc1cccc(C2=Nc3ccccc3SC(c3ccccc3)C2)c1 (configuration not stated) | 142 µM | 40 µM | – | –
COc1ccccc1C1CC(c2cccc(O)c2)=Nc2ccccc2S1 (configuration not stated) | – | – | – | Not Active
COc1ccc(C2CC(c3cccc(O)c3)=Nc3ccccc3S2)cc1OC (configuration not stated) | – | – | – | Not Active
O=[N+]([O-])c1ccc(C2CC(c3cccc(O)c3)=Nc3ccccc3S2)cc1 (configuration not stated) | – | – | Not Active | Not Active
Cc1ccc(C2CC(c3cccc(O)c3)=Nc3ccccc3S2)cc1 (configuration not stated) | – | 49.8 µM | – | –
Oc1cccc(C2=Nc3ccccc3SC(c3cccnc3)C2)c1 (configuration not stated) | – | – | Not Active | Not Active
Oc1cccc(C2=Nc3ccccc3SC(c3cccs3)C2)c1 (configuration not stated) | – | 5.9 µM | – | –
Oc1cccc(C2=Nc3ccccc3SC(c3ccc(Cl)cc3)C2)c1 (configuration not stated) | 76.9 µM | 18.8 µM | – | –
CN(C)c1ccc(C2CC(c3cccc(O)c3)=Nc3ccccc3S2)cc1 (configuration not stated) | – | – | – | Not Active
Oc1cccc(C2=Nc3ccccc3SC(c3cccc(O)c3)C2)c1 (configuration not stated) | – | 71.1 µM | – | –
Oc1cccc(C2=Nc3ccccc3SC(c3ccccc3Cl)C2)c1 (configuration not stated) | – | – | Not Active | Not Active
O=[N+]([O-])c1cccc(C2CC(c3cccc(O)c3)=Nc3ccccc3S2)c1 (configuration not stated) | – | – | Not Active | Not Active
Oc1cccc(C2=Nc3ccccc3SC(c3cccc(Cl)c3)C2)c1 (configuration not stated) | – | – | – | Not Active
Oc1cccc(C2=Nc3ccccc3SC(c3ccccc3F)C2)c1 (configuration not stated) | – | 70.6 µM | Not Active | –
Oc1ccc(C2CC(c3cccc(O)c3)=Nc3ccccc3S2)cc1 (configuration not stated) | – | – | Not Active | Not Active
COc1cc(C2CC(c3cccc(O)c3)=Nc3ccccc3S2)ccc1O (configuration not stated) | – | – | Not Active | Not Active
